Laboratory results as given in patent publication US20230081720A1, “MCL-1 INHIBITOR ANTIBODY-DRUG CONJUGATES AND METHODS OF USE” (NOVARTIS AG, priority 2019, published 2023).
Read-outs that look alike come from different tables or passages of the source.

How the values were obtained:
[1] = tested on: Karpas422 diffuse large B-cell lymphoma model; test: Karpas422 xenograft tumor growth inhibition; format: in vivo, mice; settings: 50 MK 4ON/3OFF/4ON, PO, alone
Procedure: The in vivo therapeutic effect of a CD74-targeting ADC formulated in Phosphate-Buffered Saline (PBS) was determined in Karpas422 diffuse large B-cell lymphoma model after intravenous (IV) administration.
Karpas422 cells, obtained from ATCC, were cultured in RPMI supplemented with 20% FBS. Cells were resuspended in 100% Matrigel (BD Biosciences) and 0.1 ml containing 11×10^6 cells were subcutaneously inoculated into the right flank of female NSG mice, provided by Charles River. When tumors reached the appropriate volume, mice were randomized, 6 animals per group, using Easy stat software. IgG1-Linker-Payload Fc silent, anti-CD74_CysmAb Fc silent and anti-CD74_CysmAb Fc silent_L5-P1 (30 mg/kg) were injected once IV in PBS. Venetoclax (synthetized at the Servier Research Institute—IdRS) was formulated in PEG/EtOH/Phosal (Polyethylene glycol/ethanol/phosal, 30/10/60) and administered per os (PO) daily on weekdays (50 mpk, 4ON/3OFF/4ON). Mice body weight was monitored three times a week and tumor size measured using electronic calipers. Tumor volume was estimated by measuring the minimum and maximum tumor diameters using the formula: (minimum diameter)^2(maximum diameter)/2. The last day with at least half of control animals still present in the study (d23), tumor growth inhibition was calculated using the formula:
With DTV (Delta Tumor Volume) at Dx, calculated being TV at Dx-TV at Randomization. Response was evaluated as it follows: CR (Complete Response) if tumor size was <25 mm^3 for at least three measurements, PR (Partial Response) if tumor size was comprised between 25 mm^3 and 168.3 mm^3 (half of the starting size) for at least three measurements. Mice were sacrificed at the first measurement for which tumor volume exceeded 2000 mm^3 or at the first signs of animal health deterioration. […] SCID mice were maintained according to institutional guidelines.

[2] = tested on: Nomo1 acute myeloid leukemia model; test: Nomo1 xenograft tumor growth inhibition; format: in vivo; settings: female SCID mice, 50 MK 4ON/3OFF/4ON, PO, alone, day 9
Procedure: The in vivo therapeutic effect of a CD74-targeting ADC formulated in Phosphate-Buffered Saline (PBS) is determined in Nomo1 acute myeloid leukemia model after intravenous (IV) administration. The follow compounds were tested: anti-CD74_CysmAb Fc silent_L5-P1, anti-CD74_CysmAb Fc silent and IgG1-Linker-Payload Fc silent.
Nomo1 cells, obtained from DSMZ, were cultured in RPMI supplemented with 10% FBS. 0.1 ml containing 5×10^6 cells were subcutaneously inoculated into the right flank of female SCID mice, provided by Charles River. When tumors reached the appropriate volume, mice were randomized, 6 animals per group, using Easy stat software. IgG1-Linker-Payload Fc silent, anti-CD74_CysmAb Fc silent and anti-CD74_CysmAb Fc silent_L5-P1 (30 mg/kg) were injected once IV in PBS. Venetoclax (synthetized at the Servier Research Institute—IdRS) was formulated in PEG/EtOH/Phosal (Polyethylene glycol/ethanol/phosal, 30/10/60) and administered per os (PO) daily on weekdays (50 mpk, 4ON/3OFF/4ON). Mice body weight was monitored three times a week and tumor size measured using electronic calipers. […] The last day with at least half of animals of all groups still present in the study (d9), tumor growth inhibition was calculated using the formula: […]
With DTV (Delta Tumor Volume) at Dx, calculated being TV at Dx-TV at Randomization. […]

[3] = tested on: Monomac1 acute myeloid leukemia model; test: Monomac1 xenograft tumor growth inhibition; format: in vivo, mice; settings: 50MK 2ON/2OFF/5ON/2OFF/4ON, PO, alone
Procedure: The in vivo therapeutic effect of a CD74-targeting ADC formulated in Phosphate-Buffered Saline (PBS) was determined in Monomac1 acute myeloid leukemia model after intravenous (IV) administration. The following compounds were tested: CD74-targeting ADC is anti-CD74_CysmAb Fc silent_L5-P1, IgG1-Linker-Payload Fc silent, and anti-CD74_CysmAb Fc silent.
Monomac1 cells, obtained from DSMZ, were cultured in RPMI supplemented with 10% FBS. 0.1 ml containing 5×10^6 cells were subcutaneously inoculated into the right flank of female SCID mice, provided by Charles River. When tumors reached the appropriate volume, mice were randomized, 6 animals per group, using Easy stat software. IgG1-Linker-Payload Fc silent, anti-CD74_CysmAb Fc silent and anti-CD74_CysmAb Fc silent_L5-P1 (30 mg/kg) were injected once IV in PBS. Venetoclax (synthetized at the Servier Research Institute—IdRS) was formulated in PEG/EtOH/Phosal (Polyethylene glycol/ethanol/phosal, 30/10/60) and administered per os (PO) daily on weekdays (50 mpk, 2ON/2OFF/5ON/2OFF/4ON). Mice body weight was monitored three times a week and tumor size measured using electronic calipers. Tumor volume was estimated by measuring the minimum and maximum tumor diameters using the formula: (minimum diameter)^2(maximum diameter)/2. The last day with at least half of control animals still present in the study (d16), tumor growth inhibition was calculated using the formula:
With DTV (Delta Tumor Volume) at Dx, calculated being TV at Dx-TV at Randomization. […] Mice were sacrificed at the first measurement for which tumor volume exceeded 2000 mm^3 or at the first signs of animal health deterioration. […] SCID mice were maintained according to institutional guidelines.

[4] = tested on: EOL1 human acute myeloid (eosinophilic) leukemia xenograft model; test: EOL1 xenograft, CD74-L5-P1 Fc silent with venetoclax (Example 14); format: in vivo, mice
Procedure: EOL1 luciferase transfected cells were cultured at 37° C. in an atmosphere of 5% CO2 in air in RPMI1640 (BioConcept Ltd. Amimed) supplemented with 10% FCS (BioConcept Ltd. Amimed, #2-01 F30-1), 2 mM L-glutamine (BioConcept Ltd. Amimed, #5-10K00-H) and 1 mM sodium pyruvate (BioConcept Ltd. Amimed, #5-60F00-H), 10 mM HEPES (Gibco #11560496). To establish EOL1 xenografts cells were harvested and re-suspended in HBSS (Gibco, #14175) before injecting 100 μL containing 5×10^6 cells subcutaneously in the flanks of female SCID beige mice (Charles River, Germany). Tumor growth was monitored regularly post cell inoculation and animals were randomized into treatment groups (n=6) with a mean tumor volume of about 130 mm^3. CD74-L5-P1 Fc silent, isotype IgG1 ADC Fc silent and CD74 Fc silent antibody were administered intravenously (iv) once at the start of treatment at the doses indicated in FIG. 12 either alone or in combination with venetoclax which was administered orally (po) daily (qd) at 50 mg/kg. Doses were adjusted to individual mouse body weights. The iv dose volume was 10 ml/kg and each ADC was dissolved in 0.9% (w/v) NaCl in water. Tumor volume data on day 10 post treatment were analyzed statistically using Kruskal-Wallis rank sum test (Indigo Software). When applicable, results are presented as mean±SEM. As a measure of efficacy the % T/C value is calculated on day 10 according to:
(§1) (Δtumor volume^treated/Δtumor volume^control)*100
(§2) Tumor regression was calculated according to:
(§3) −(Δtumor volume^treated/tumor volume^treated at start)*100
(§4) Where Δtumor volumes represent the mean tumor volume on the evaluation day minus the mean tumor volume at the start of the experiment.

[5] = tested on: EOL1 human acute myeloid (eosinophilic) leukemia xenograft model; test: EOL1 xenograft, CD74-ADCs Fc silent with different linker payloads (Example 15); format: in vivo, mice; settings: 2.5 mg/kg i.v. once + Venetoclax 50 mg/kg p.o. qd
Procedure: To optimize the linker payload, efficacy of 6 CD74-ADCs with different linker payloads (L5-P1, L30-P1, L31-P1, L32-P1, L33-P1 and L34-P1) was evaluated in the EOL1 model in vivo.
EOL1 luciferase transfected cells were cultured at 37° C. in an atmosphere of 5% CO2 in air in RPM11640 (BioConcept Ltd. Amimed) supplemented with 10% FCS (BioConcept Ltd. Amimed, #2-01 F30-1), 2 mM L-glutamine (BioConcept Ltd. Amimed, #5-10K00-H) and 1 mM sodium pyruvate (BioConcept Ltd. Amimed, #5-60F00-H), 10 mM HEPES (Gibco #11560496). To establish EOL1 xenografts cells were harvested and re-suspended in HBSS (Gibco, #14175) before injecting 100 μL containing 5×10^6 cells subcutaneously in the flanks of female SCID beige mice (Charles River, Germany). Tumor growth was monitored regularly post cell inoculation and animals were randomized into treatment groups (n=6) with a mean tumor volume of about 130 mm^3. The ADCs were administered intravenously (iv) once at the start of treatment at 2.5 mg/kg or at 3.3 mg/kg in combination with venetoclax which was administered orally (po) daily (qd) at 50 mg/kg. Doses were adjusted to individual mouse body weights. The iv dose volume was 10 ml/kg and each ADC was dissolved in 0.9% (w/v) NaCl in water. Tumor volume data on day 10 post treatment were analyzed statistically using one way ANOVA post hoc Tukey's multiple comparisons test (Indigo Software). Results are presented as mean±SEM. As a measure of efficacy the % T/C value is calculated on day 10 according to:
as §1, §2, §3, §4

MONO-MAC-1 = format: cell-based
Procedure: (§5) The CD74 MCL-1 antibody drug conjugates were tested against three endogenous cancer cell lines. MONO-MAC-1 (DSMZ No. ACC-252 cultured in RPMI-1640+10% FBS+1× non-essential amino acids+1 mM sodium pyruvate), NOMO-1 (DSMZ No. ACC-542 cultured in RPMI-1640+10% FBS) and EOL-1 (DSMZ No. ACC-386 cultured in RPMI-1640+10% FBS)
(§6) The ability of the CD74 MCL-1 antibody drug conjugates to inhibit cell proliferation in combination with BCL-2 inhibitor and survival was assessed using the Promega CellTiter-Glo® proliferation assay. Cell lines were cultured in media that is optimal for their growth at 5% CO2, 37° C. in a tissue culture incubator. Prior to seeding for the proliferation assay, the cells were split at least 2 days before the assay to ensure optimal growth density. On the day of seeding, suspension cells were harvested. Cell viability and cell density were determined using a cell counter (Vi-Cell XR Cell Viability Analyzer, Beckman Coulter). […] Cells were seeded at a density of 1,000 cells per well in 45 μL of standard growth media. Plates were incubated at 5% CO2, 37° C. overnight in a tissue culture incubator. The next day, free MCL-1 payload (P1), targeting MCL-1 ADCs and non-targeting isotype ADCs were prepared at 10× in standard growth media. The prepared drug treatments were then added to the cells resulting in final concentrations of 0.0005-300 nM and a final volume of 50 μL per well. Each drug concentration was tested in quadruplets. Three conditions were evaluated for each compound. The compounds were evaluated as single agents and in combination with Venetoclax and in combination with Compound A1. The Venetoclax and Compound A1 were dosed at either 5 nM or 50 nM final concentration. Plates were incubated at 5% CO2, 37° C. for 5 days in a tissue culture incubator, after which cell viability was assessed through the addition of 25 μL of CellTiter Glo® (Promega, cat#G7573), a reagent which lyses cells and measures total adenosine triphosphate (ATP) content. Plates were incubated at room temperature for 10 minutes to stabilize luminescent signals prior to reading using a luminescence reader (EnVision Multilabel Plate Reader, PerkinElmer). To evaluate the effect of the drug treatments, luminescent counts from wells containing untreated cells (100% viability) were used to normalize treated samples. A variable slope model was applied to fit a nonlinear regression curve to the data in GraphPad PRISM version 7.02 software. IC50 and Amax values were extrapolated from the resultant curves.

NOMO-1 = format: cell-based
Procedure: as §5, §6

EOL-1 = format: cell-based
Procedure: as §5, §6

Compound: CC1(C)CCC(CN2CCN(c3ccc(C(=O)NS(=O)(=O)c4ccc(NCC5CCOCC5)c([N+](=O)[O-])c4)c(Oc4cnc5[nH]ccc5c4)c3)CC2)=C(c2ccc(Cl)cc2)C1 [Venetoclax]
- % CR [1]: 0%
- % PR [1]: 0%
- % TGI (d23) ([1]; female NSG mice, day 23): 31.1%
- % TGI (d9) [2]: 26.2%
- % CR [3]: 0%
- % PR [3]: 0%
- % TGI (d16) ([3]; female SCID mice, day 16): 4.5%
- T/C (%) ([4]; 50 mg/kg p.o. qd + vehicle for ADC, day 10): 90%
- ΔTumor volume (mm^3) ([4]; 50 mg/kg p.o. qd + vehicle for ADC, day 10, mean): 977 mm^3
- antitumor effect (in words) ([4]; 50 mg/kg po qd alone): Limited efficacy

Compound: COCCOCCOCCOCCOCCOCCOCCOCCOCCOCCOCCOCCOCCOCCOCCOCCOCCOCCOCCOCCOCCOCCOCCOCCn1cc(COCc2cc(NC(=O)[C@H](CCCNC(N)=O)NC(=O)[C@@H](NC(=O)CCOCCN3C(=O)CC(C)C3=O)C(C)C)ccc2C[N+]2(C)CCN(CCOc3ccc(-c4c(-c5ccc(F)cc5)sc5ncnc(O[C@H](Cc6ccccc6OCc6ccnc(-c7ccccc7OC)n6)C(=O)O)c45)c(C)c3Cl)CC2)nn1 (stereo partly shown) [CD74-L5-P1]
- T/C (%) ([5]; day 10): 70%
- ΔTumor volume (mm^3) ([5]; female SCID beige mice, day 10, mean): 702 mm^3
- IC50 (MONO-MAC-1; + 5 nM Compound A1, 5 days): 0.636 nM
- IC50 (MONO-MAC-1; + 5 nM Venetoclax, 5 days): 1.31 nM
- IC50 (MONO-MAC-1; + 50 nM Compound A1, 5 days): 0.156 nM
- IC50 (MONO-MAC-1; + 50 nM Venetoclax, 5 days): 0.409 nM
- Amax (Span) MONO-MAC-1 (MONO-MAC-1; single agent, 5 days): 84.9
- IC50 (MONO-MAC-1; single agent, 5 days): 7.95 nM
- IC50 (NOMO-1; + 5 nM Compound A1, 5 days): 0.457 nM
- IC50 (NOMO-1; + 5 nM Venetoclax, 5 days): 1.03 nM
- IC50 (NOMO-1; + 50 nM Compound A1, 5 days): 0.138 nM
- IC50 (NOMO-1; + 50 nM Venetoclax, 5 days): 0.278 nM
- Amax (Span) NOMO-1 (NOMO-1; single agent, 5 days): 74.45
- IC50 (NOMO-1; single agent, 5 days): 3.7 nM
- IC50 (EOL-1; + 5 nM Compound A1, 5 days): 0.136 nM
- IC50 (EOL-1; + 5 nM Venetoclax, 5 days): 0.164 nM
- Amax (Span) EOL-1 (EOL-1; single agent, 5 days): 91.25
- IC50 (EOL-1; single agent, 5 days): 1.42 nM
